The results in this text go back to patent US20130316015A1, “Methods for Repairing Cartilage” (MOUNT SINAI HOSPITAL, priority 2011, published 2013).

For the experiment, the system named is full thickness chondrocytes. Put plainly: In vitro-formed cartilage on membrane inserts: DNA, GAG and collagen contents. In kind it is cell-based, calves. On the procedure: Membrane inserts (Millicell-CM®, Millipore Corp., Bedford, Mass., USA) were coated with type II collagen (0.5 mg/ml in 0.1N acetic acid; Sigma Chemical Co., St. Louis, Mo., USA) and dried overnight. The membrane inserts were UV sterilized for 30 minutes and soaked in Ham's F12 for 30 minutes prior to cell culturing.
Cartilage was aseptically excised from the full thickness of metacarpal-phalangeal articular cartilage from 9 to 12 months old calves within 24 hours of death as previously described. For the experiment investigating the response of chondrocytes zonal subpopulations to inorganic polyphosphate, cartilage was excised as the superficial-mid zone (top 70%) and the deep-zone (bottom 30%). Chondrocytes were harvested from the tissue by sequential enzymatic digestion (0.5% protease (Sigma Chemical Co., St. Louis, Mo., USA) for 2 hours followed by 0.1% collagenase (Roche Diagnostics GmbH, Mannheim, Germany) overnight). The cells were then seeded on top of membrane inserts (1×10^6 cells per construct) in Ham's F-12 supplemented with 5% fetal bovine serum (FBS) (HyClone, Logan, Utah, USA) and incubated at 37° C. in an atmosphere characterized by 95% relative humidity and 5% CO2. On day 5, the serum concentration was changed to 20% and supplemented with ascorbic acid (100 μg/ml, Sigma Chemical Co., St. Louis, Mo., USA). At this time, cultures were incubated in the presence or absence of various concentrations of sodium phosphate glasses (inorganic polyphosphate; Sigma Chemical Co., St. Louis, Mo., USA) or sodium phosphate buffer. The concentrations of inorganic polyphosphate utilized for each experiment are calculated based on the phosphate content. Cultures were grown for up to 4 weeks following initiation of the inorganic polyphosphate treatment. […]
In vitro and ex vivo-cultured cartilage tissues were harvested and washed twice in PBS. […] The fluorescence was visualized with a Zeiss Axioplan epifluorescence microscope using a wide pass DAPI filter. […]
Cartilage tissues were digested with papain (Sigma Chemical Co., St. Louis, Mo., USA; 40 μg·ml^−1) in digestion buffer (20 mM ammonium acetate, 1 mM EDTA and 2 mM DTT) for 48 hours at 65° C. […] The DNA content was assessed using the Hoechst 33258 dye (Polysciences Inc., Washington, Pa., USA) binding assay and fluorometry (emission wavelength: 458 nm; excitation wavelength: 365 nm). […]
The proteoglycan and collagen contents of cartilage tissues were also measured from aliquots of the papain digest. The proteoglycan content was estimated by quantifying the amount of sulphated GAG using the dimethylmethylene blue dye (Polysciences Inc., Washington, Pa., USA) binding assay and quantifying the colour spectrophotometrically at 525 nm. […] The collagen content was estimated by quantifying the hydroxyproline. […]

Where [1] appears, read: 1 mM, 2 weeks in culture, normalized to DNA content, mean ± SEM.

`O=P(O)(O)O` [Phosphate, sodium phosphate]: where the note is “1 mM, 2 weeks in culture, mean ± SEM”, the “DNA Content” value is 8.5 ± 0.92 µg. For the same compound, under setting [1], the “Collagen Content” value is recorded as 105.3 ± 9.5 % of control and the “GAG Content” value was 112.5 ± 14.8 % of control. In addition, the “DNA, GAG and collagen contents compared to non-supplemented medium” value (concentrations equivalent to those used for polyphosphate, 2 weeks) is recorded as “did not significantly alter”.
